Experimental data published in patent US10183908B2, “Compositions for the treatment of kidney and/or liver disease” (VECTUS BIOSYSTEMS LIMITED, priority 2015, dated 2019).

Legend:
[1] = test system: bovine aortic endothelial cells; experiment: xCELLigence cell impedance in bovine aortic endothelial cells; format: cell-based; conditions: test compounds at 62.5, 125 or 250 μM; FIG. 9; negative response = indirect vasodilator
Procedure: Briefly, 50 μl of cell culture medium (DMEM low glucose supplemented with 10% fetal bovine serum at 37° C.) was added to each well of an E-Plate 96 (Roche), and the background impedance in each well was measured. 50 μl of A-10 cell suspension (10,000 cells/well) was then added to the appropriate wells of the E-Plate 96. Cell index was monitored for each well of the E-Plate 96 in RTCA SP Station within the cell culture incubator. After overnight incubation for 16-20 hours at 5% CO2 and 95% humidity, 100 μl of test compound solution (test compounds were prepared in DMSO and diluted with cell culture medium to a final DMSO concentration of 0.25%) was added to the appropriate wells of the E-Plate 96 and cell index values were measured immediately following compound treatment every 20 seconds for 3 hours. Cell index value is baseline-corrected by subtracting the cell index of vehicle-treated cells and normalized by dividing by the cell index at the time point immediately before compound addition. Baseline normalized cell index as a function of time is plotted using Roche RTCA software.
The xCELLigence SP system was also used to measure changes in cellular impedance following the treatment of bovine aortic endothelial cells (European Collection of Cell Cultures) with test compound. The method employed is the same for the A10 embryonic vascular smooth muscle cells described above but with the cell culture medium supplemented with 15% fetal bovine serum instead of 10%.
Compounds may interact with vascular endothelial cells causing the release of substances such as nitric oxide and endothelium-derived hyperpolarising factor, which in turn act on the vascular smooth muscle cells causing vasodilatation and lowering blood pressure. Such compounds are termed indirect vasodilators.

[2] = test system: Rat (NRK-52E) renal proximal tubule cells; experiment: Rescue of renal proximal tubule cells from cisplatin cytotoxicity (WST-8/CCK-8); format: cell-based; conditions: test compound 30 μM; cisplatin 5 μg/ml; 24 or 48 hours; FIG. 10
Procedure: Rat (NRK-52E) renal proximal tubule cells grown in DMEM+10% FBS+1% NEAA+2 mM glutamine were placed in 96 well plates at 10,000 cells/well and incubated at 37° C. with 5% CO2 overnight. Test compounds at a concentration of 30 μM were incubated with human or rat renal proximal tubule cells for 2 hours at 37° C. and 5% CO2. Cis-diamminedichloroplatinum[…] (cisplatin) was then added at […] and each cell population was then incubated for 24 or 48 hours at 37° C. with 5% CO2. Test compounds were maintained at their original concentrations. To assay the cytotoxic effects of cisplatin on the rat renal proximal tubule cells a highly water-soluble tetrazolium salt, WST-8, which is reduced by dehydrogenases in cells to produce formazan, a water-soluble, yellow-coloured indicator dye was used following the manufacturer's instructions (specifically the Cell Count Kit-8 (CCK-8) assay from Sigma). Plate absorbance of the WST-8 (CCK-8) reagent was then measured at 450 nm using a Thermo Scientific Multiskan EX plate reader.

Compound	impedance response for bovine aortic endothelial cells [1]	Cisplatin induced cell death in renal proximal tubular cells [2]
NC(=O)CCc1cc(-c2cccc(F)c2)ccc1-c1cccc(O)c1 [Compound P1, 3-(3″-Fluoro-3-hydroxy-1,1′:4′,1′-terphenyl-2′-yl)propanamide]	Negative impedance responses	decreased
NC(=O)CCc1cc(-c2ccccn2)ccc1-c1cccc(O)c1 [Compound P4, 3-[3′-Hydroxy-4-(pyridin-2-yl)biphenyl-2-yl]propanamide]	Negative impedance responses	decreased
NC(=O)CCc1cc(-c2ccncc2)ccc1-c1cccc(O)c1 [Compound P6, 3-[3′-Hydroxy-4-(pyridin-4-yl)biphenyl-2-yl]propanamide]	Negative impedance responses	decreased
Cn1nccc1-c1ccc(-c2cccc(O)c2)c(CCC(N)=O)c1 [Compound P38, 3-[3′-Hydroxy-4-(1-methyl-1H-pyrazol-5-yl)biphenyl-2-yl]propanamide]	Negative impedance responses	decreased
Cc1noc(C)c1-c1ccc(-c2cccc(O)c2)c(CCC(N)=O)c1 [Compound P41, 3-(4-(3,5-Dimethylisoxazol-4-yl)-3′-hydroxy-[1,1′-biphenyl]-2-yl)propanamide]	Negative impedance responses	decreased
Cc1n[nH]c(C)c1-c1ccc(-c2cccc(O)c2)c(CCC(N)=O)c1 [Compound P42, 3-[4-(3,5-Dimethyl-1H-pyrazol-4-yl)-3′-hydroxybiphenyl-2-yl]propanamide]	Negative impedance responses	decreased
Cc1ccsc1-c1ccc(-c2cccc(O)c2)c(CCC(N)=O)c1 [Compound P43, 3-[3′-Hydroxy-4-(3-methylthiophen-2-yl)biphenyl-2-yl]propanamide]	Negative impedance responses	decreased
Cc1cscc1-c1ccc(-c2cccc(O)c2)c(CCC(N)=O)c1 [Compound P44, 3-[3′-Hydroxy-4-(4-methylthiophen-3-yl)biphenyl-2-yl]propanamide]	Negative impedance responses	decreased
Cc1n[nH]cc1-c1ccc(-c2cccc(O)c2)c(CCC(N)=O)c1 [Compound P45, 3-[3′-Hydroxy-4-(3-methyl-1H-pyrazol-4-yl)biphenyl-2-yl]propanamide]	–	decreased
NC(=O)CCc1cc(-c2cccc(C(=O)O)c2)ccc1-c1cccc(O)c1 [Compound P47, 3′-(3-Amino-3-oxopropyl)-3″-hydroxy-1,1′:4′,1″-terphenyl-3-carboxylic Acid]	Negative impedance responses	–
NC(=O)CCc1cc(-c2cccc(O)c2)ccc1-c1cccc(O)c1 [Compound P48, 3-(3,3″-Dihydroxy-1,1′:4′,1″-terphenyl-2′-yl)propanamide]	Negative impedance responses	–
NC(=O)CCc1cc(-c2ccc(N)cc2)ccc1-c1cccc(O)c1 [Compound P49, 3-(4″-Amino-3-hydroxy-1,1′:4′,1″-terphenyl-2′-yl)propanamide]	Negative impedance responses	decreased
COc1cccc(-c2ccc(-c3cccc(O)c3)c(CCC(N)=O)c2)c1 [Compound P50, 3-(3-Hydroxy-3″-methoxy-1,1′:4′,1″-terphenyl-2′-yl)propanamide]	Negative impedance responses	decreased
